{"source": "patent US20220024910A1", "about": "(published 2022)", "data": [{"molecule": "Cc1c(C(=O)NN2CCS(=O)(=O)CC2)nn(-c2ccc(Cl)cc2Cl)c1-c1ccc(C#CCCC#N)cc1", "values": [{"measurement": "melting point", "result": "278 to 280", "unit": "°C"}]}]}
